Patent publication US9833494B2, “Methods of treating medical conditions using peptides” (KeyBioscience AG, priority 2009, dated 2017)
Entries after “also recorded” stand apart in the source; their conditions may differ. Bridge positions count the residues as written; N and C are the ends. Ends that are not written are not given here.

Columns and labels:
[1] = placebo controlled crossover study with Beagle dogs, oral enteric-coated capsules (food intake, weight); type: in vivo, Beagle dog; details: for effect on food intake / change in weight during the dosing period: oral capsules; for effect on food intake: equivalent doses, week of dosing, FIG. 2; for change in weight during the dosing period: same dose, FIG. 3
From the text: (§1) FIG. 2 is a graph illustrating the effect on food consumption provided by SEQ ID NO: 3 versus a placebo and two known appetite suppressants in a Beagle dog study. Average daily change in food consumption is shown following administration of oral capsules containing various doses of sCT, PYY or SEQ ID NO: 3 given to beagle dogs for four to seven days.
as §1, with “3” for “2”, “weight” for “food consumption”, “PYY,” for “PYY”
The effect of peptide SEQ ID NO: 3 on food intake was investigated in a placebo controlled crossover study with Beagle dogs. Peptide SEQ ID NO: 3, as well as salmon calcitonin (sCT) and PYY(3-36)NH2 were formulated in enteric-coated capsules for oral delivery. The capsules also contained excipients that inhibit proteases and enhance the absorption of peptides. Placebo capsules contained the same excipients without the peptide. Food and water intake, as well as the weight of the dogs was monitored daily before, during, and after the dosing period. Dogs were allowed access to a known amount of food for an 8 hour period every day, and water was provided ad libitum. […] The food intake of dogs given a placebo remained unchanged.

[2] = relative weight change by rats injected daily; type: in vivo, rat; details: for relative weight change: same dose; for effectiveness in weight control: FIGS. 5 and 6
From the text: FIG. 5 is a graph illustrating relative weight change by rats injected daily with the same dose of either a placebo, UGP269 (SEQ ID NO: 12) or UGP 271 (SEQ ID NO: 13), at 7 and 14 days after commencement of the injection regimen. […] UGP 271 contained nearly the same sequence of amino acids as UGP269 except for the replacement of three amino acids at positions 26, 27 and 29.
FIG. 6 is a graph illustrating relative weight change by rats injected daily with the same dose of either a placebo, salmon calcitonin, UGP 271 (SEQ ID NO: 13) or UGP 281 (SEQ ID NO: 14) at 7 and 14 days after commencement of the injection regimen. FIG. 1 is a graph illustrating data from a bioassay comparing cAMP response for a peptide of the invention, SEQ ID NO:3, versus recombinant salmon calcitonin. […] UGP281 and UGP271 had identical amino acid sequences except that UGP281 was acylated at the N-terminus with acetate.

calcitonin receptor = molecular target: T1, calcitonin receptor (Homo sapiens, UniProt P30988); test: cAMP response bioassay with T47D cells; type: cell-based; details: FIG. 1, versus recombinant salmon calcitonin
T1 construct: endogenous in cells; host or cells: T47D cells
T1 sequence (P30988 25-474): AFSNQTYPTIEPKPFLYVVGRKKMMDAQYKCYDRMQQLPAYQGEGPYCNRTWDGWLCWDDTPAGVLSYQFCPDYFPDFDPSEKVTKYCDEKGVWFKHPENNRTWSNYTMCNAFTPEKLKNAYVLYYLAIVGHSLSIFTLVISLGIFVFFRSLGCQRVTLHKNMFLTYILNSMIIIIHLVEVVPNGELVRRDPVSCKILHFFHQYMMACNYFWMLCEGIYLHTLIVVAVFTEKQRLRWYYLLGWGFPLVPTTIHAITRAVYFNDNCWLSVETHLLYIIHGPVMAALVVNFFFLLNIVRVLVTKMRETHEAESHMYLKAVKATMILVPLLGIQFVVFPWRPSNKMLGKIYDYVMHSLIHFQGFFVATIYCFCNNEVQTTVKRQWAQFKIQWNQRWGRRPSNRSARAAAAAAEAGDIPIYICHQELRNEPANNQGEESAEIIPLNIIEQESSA
Experimental: FIG. 1 is a graph illustrating data from a bioassay comparing cAMP response for a peptide of the invention, SEQ ID NO: 3, versus recombinant salmon calcitonin. Two replicate bioassay experiments were performed measuring the cAMP response with T47D cells. Each experiment compared three samples of SEQ ID NO: 3 to a sample of rsCT.

[3] = molecular target: T2, calcitonin receptors on T47D cells (Homo sapiens, UniProt P30988); test: binding to calcitonin receptors on T47D cells
T2 construct: endogenous in cells; host or cells: T47D cells
T2 sequence (P30988 25-474): T1 sequence (P30988 25-474)
From the text: FIG. 4 is a graph illustrating calcitonin-like properties of three peptides of the invention in comparison to salmon calcitonin in an assay that measures binding to calcitonin receptors on T47D cells. The three peptides of the invention are UGP269 (SEQ ID NO: 12), UGP 271 (SEQ ID NO: 13) and UGP281 (SEQ ID NO: 14).

[4] = rats injected intramuscularly daily, two weeks, FIG. 6
[5] = rats injected daily, 7 and 14 days, FIG. 5, versus placebo

Compound	effect on food intake [1]	change in weight during the dosing period [1]	relative weight change [2, 4]	cAMP response (indicator of calcitonin receptor activation) compared with salmon calcitonin (calcitonin receptor)	potency in reducing food consumption relative to sCT ([1]; FIGS. 1-3)	binding to calcitonin receptors compared with sCT ([3]; FIG. 4)	relative weight change [2, 5]	effectiveness in weight control ([2]; rats)	binding to calcitonin receptors compared with sCT ([3]; FIG. 4, listed as UGP 271)	enhancement of efficacy by the acetyl group on cysteine-1 ([2]; rats, FIG. 6, UGP281 versus UGP271)
CC(C)C[C@H](NC(=O)[C@H](CCCCN)NC(=O)CNC(=O)[C@H](CC(C)C)NC(=O)[C@@H](NC(=O)[C@@H]1CSSC[C@H](N)C(=O)N[C@@H](CO)C(=O)N[C@@H](CC(N)=O)C(=O)N[C@@H](CC(C)C)C(=O)N[C@@H](CO)C(=O)N[C@@H]([C@@H](C)O)C(=O)N1)C(C)C)C(=O)N[C@@H](CO)C(=O)N[C@@H](CCC(N)=O)C(=O)N[C@@H](CCC(=O)O)C(=O)N[C@@H](CC(C)C)C(=O)N[C@@H](Cc1c[nH]cn1)C(=O)N[C@@H](CCCCN)C(=O)N[C@@H](CC(C)C)C(=O)N[C@@H](CCC(N)=O)C(=O)N[C@H](C(=O)N[C@@H](Cc1ccc(O)cc1)C(=O)N1CCC[C@H]1C(=O)N[C@@H](CCCNC(=N)N)C(=O)N[C@H](C(=O)N[C@@H](CC(N)=O)C(=O)N[C@H](C(=O)NCC(=O)N[C@@H](CO)C(=O)NCC(=O)N[C@H](C(=O)N1CCC[C@H]1C(N)=O)[C@@H](C)O)[C@@H](C)O)[C@@H](C)O)[C@@H](C)O [sCT, salmon calcitonin]	significantly decreased food intake	small but significant reduction in weight	significant weight loss	–	–	–	–	–	–	–
PYY(3-36)NH2	lesser effect	0.05 % per day	–	–	–	–	–	–	–	–
SEQ ID NO: 3: salmon calcitonin sequence except asparagine at position 30 and tyrosine at position 32, amidated at tyrosine-32 (CSNLSTCVLGKLSQELHKLQTYPRTNTGSNTY-NH2; ends and bridges not checked)	significantly decreased food intake	small but significant reduction in weight	–	less potent when binding to the calcitonin receptor than is natural salmon calcitonin	comparable to that of the bone anti-resorptive peptide sCT	–	–	–	–	–
UGP269: peptide of the invention, calcitonin analog (CSNLSTCVLGKLSQELHKLQTYPRTNTGSNTY-NH2; disulfide 1-7; N-terminus assumed; SMILES CC(C)C[C@H](NC(=O)[C@H](CCCCN)NC(=O)CNC(=O)[C@H](CC(C)C)NC(=O)[C@@H](NC(=O)[C@@H]1CSSC[C@H](N)C(=O)N[C@@H](CO)C(=O)N[C@@H](CC(N)=O)C(=O)N[C@@H](CC(C)C)C(=O)N[C@@H](CO)C(=O)N[C@@H]([C@@H](C)O)C(=O)N1)C(C)C)C(=O)N[C@@H](CO)C(=O)N[C@@H](CCC(N)=O)C(=O)N[C@@H](CCC(=O)O)C(=O)N[C@@H](CC(C)C)C(=O)N[C@@H](Cc1c[nH]cn1)C(=O)N[C@@H](CCCCN)C(=O)N[C@@H](CC(C)C)C(=O)N[C@@H](CCC(N)=O)C(=O)N[C@H](C(=O)N[C@@H](Cc1ccc(O)cc1)C(=O)N1CCC[C@H]1C(=O)N[C@@H](CCCNC(=N)N)C(=O)N[C@H](C(=O)N[C@@H](CC(N)=O)C(=O)N[C@H](C(=O)NCC(=O)N[C@@H](CO)C(=O)N[C@@H](CC(N)=O)C(=O)N[C@H](C(=O)N[C@@H](Cc1ccc(O)cc1)C(N)=O)[C@@H](C)O)[C@@H](C)O)[C@@H](C)O)[C@@H](C)O)	–	–	–	–	–	less binding to sCT receptors than sCT; also recorded: less binding affinity for the calcitonin receptor than does salmon calcitonin	less weight gain over two weeks than those injected with placebo	good effectiveness in weight control	–	–
UGP271: nearly the same sequence as UGP269 except for the replacement of three amino acids at positions 26, 27 and 29 (CSNLSTCVLGKLSQELHKLQTYPRTDVGANTY-NH2; disulfide 1-7; N-terminus assumed; SMILES CC(C)C[C@H](NC(=O)[C@H](CCCCN)NC(=O)CNC(=O)[C@H](CC(C)C)NC(=O)[C@@H](NC(=O)[C@@H]1CSSC[C@H](N)C(=O)N[C@@H](CO)C(=O)N[C@@H](CC(N)=O)C(=O)N[C@@H](CC(C)C)C(=O)N[C@@H](CO)C(=O)N[C@@H]([C@@H](C)O)C(=O)N1)C(C)C)C(=O)N[C@@H](CO)C(=O)N[C@@H](CCC(N)=O)C(=O)N[C@@H](CCC(=O)O)C(=O)N[C@@H](CC(C)C)C(=O)N[C@@H](Cc1c[nH]cn1)C(=O)N[C@@H](CCCCN)C(=O)N[C@@H](CC(C)C)C(=O)N[C@@H](CCC(N)=O)C(=O)N[C@H](C(=O)N[C@@H](Cc1ccc(O)cc1)C(=O)N1CCC[C@H]1C(=O)N[C@@H](CCCNC(=N)N)C(=O)N[C@H](C(=O)N[C@@H](CC(=O)O)C(=O)N[C@H](C(=O)NCC(=O)N[C@@H](C)C(=O)N[C@@H](CC(N)=O)C(=O)N[C@H](C(=O)N[C@@H](Cc1ccc(O)cc1)C(N)=O)[C@@H](C)O)C(C)C)[C@@H](C)O)[C@@H](C)O)	–	–	modest weight loss	–	–	less binding to sCT receptors than sCT	no weight gain	good effectiveness in weight control	less binding affinity for the calcitonin receptor than does salmon calcitonin	–
UGP281: amino acid sequence identical to UGP271 except acylated at the N-terminus with acetate (Ac-CSNLSTCVLGKLSQELHKLQTYPRTDVGANTY-NH2; disulfide 1-7; SMILES CC(=O)N[C@H]1CSSC[C@@H](C(=O)N[C@H](C(=O)N[C@@H](CC(C)C)C(=O)NCC(=O)N[C@@H](CCCCN)C(=O)N[C@@H](CC(C)C)C(=O)N[C@@H](CO)C(=O)N[C@@H](CCC(N)=O)C(=O)N[C@@H](CCC(=O)O)C(=O)N[C@@H](CC(C)C)C(=O)N[C@@H](Cc2c[nH]cn2)C(=O)N[C@@H](CCCCN)C(=O)N[C@@H](CC(C)C)C(=O)N[C@@H](CCC(N)=O)C(=O)N[C@H](C(=O)N[C@@H](Cc2ccc(O)cc2)C(=O)N2CCC[C@H]2C(=O)N[C@@H](CCCNC(=N)N)C(=O)N[C@H](C(=O)N[C@@H](CC(=O)O)C(=O)N[C@H](C(=O)NCC(=O)N[C@@H](C)C(=O)N[C@@H](CC(N)=O)C(=O)N[C@H](C(=O)N[C@@H](Cc2ccc(O)cc2)C(N)=O)[C@@H](C)O)C(C)C)[C@@H](C)O)[C@@H](C)O)C(C)C)NC(=O)[C@H]([C@@H](C)O)NC(=O)[C@H](CO)NC(=O)[C@H](CC(C)C)NC(=O)[C@H](CC(N)=O)NC(=O)[C@H](CO)NC1=O)	–	–	significant weight loss	–	–	less binding to sCT receptors than sCT; also recorded: less binding affinity for the calcitonin receptor than does salmon calcitonin	–	good effectiveness in weight control	–	substantial enhancement of efficacy
